Measurements as given in US6841519B1, “Isoxazoline derivatives and herbicides containing the same as the active ingredient” (Kumiai Chemical Industry Co., Ltd., priority 1999, dated 2005).

Key:
Type in all cases: in vivo
[1] = tested on: Echinochloa oryzicola Vasing. (Eo); experiment: Test for herbicidal effect by paddy field soil treatment (Test Example 1); details: application amount (active ingredient) 100 g/10 a, examined at the 21st day from the treatment, index per Table 40
Method: <Test Example 1> Test For Herbicidal Effect By Paddy Field Soil Treatment A paddy field soil was filled in a plastic pot of 100 cm^2 and subjected to puddling. Then, seeds of Echinochloa oryzicola Vasing. (Eo) were sowed and water was filled in a depth of 3 cm. Next day, wettable powders produced in accordance with the Formulation 1 were diluted with water and dropped on the water surface. The application amount of each wettable powder was 100 g per 10 ares in terms of the active ingredient. Then, breeding was made in a greenhouse, and the herbicidal effect of each wettable powder was examined at the 21st day from the treatment in accordance with the standard shown in Table 40. [table]

[2] = tested on: Echinochloa crus-galli (L.) Beauv. var. crusgall (Ec); experiment: Test for herbicidal effect by upland field soil treatment (Test Example 2), Ec
Method: (§1) [table] <Test Example 2> Test For Herbicidal Effect By Upland Field Soil Treatment An upland field soil was filed in a plastic pot of 80 cm^2. Seeds of Echinochloa crus-galli (L.) Beauv. var. crusgall (Ec) and Setaria viridis (L.) Beauv. (Se) were sowed, followed by covering with the same soil. Wettable powders produced in accordance with the Formulation 1 were diluted with water and sprayed uniformly: on the soil surface using a small sprayer, in an amount of 100 liters per 10 ares so that the amount of each active ingredient became 100 g per 10 ares. Then, breeding was made in a greenhouse, and the herbicidal effect of each wettable powder was examined at the 21st day from the treatment in accordance with the standard shown in Table 40.

[3] = tested on: Echinochloa crus-galli (L.) Beauv. var. crusgalli (Ec); experiment: Test for herbicidal effect by upland foliage treatment (Test Example 3); details: 100 g/10 a active ingredient, examined at 14th day
Method: Test For Herbicidal Effect By Upland Foliage Treatment
An upland field soil was filed in a plastic pot of 80 cm^2. Seeds of Echinochloa crus-galli (L.) Beauv. var. crusgalli (Ec) were sowed. Breeding was made in a greenhouse for 2 weeks. Wettable powders produced in accordance with the Formulation 1 were diluted with water and sprayed on the whole foliage of plants from above the plants using a small sprayer in an amount of 100 liters per 10 ares so that the amount of each active ingredient became 100 g per 10 ares. Then, breeding was made in the greenhouse, and the herbicidal effect of each wettable powder was examined at the 14th day from the treatment in accordance with the standard shown in Table 40.

[4] = tested on: Setaria viridis (L.) Beauv. (Se); experiment: Test for herbicidal effect by upland field soil treatment (Test Example 2), Se
Method: as §1

[5] = application amount (active ingredient) 100 g/10 a, examined at the 21st day from the treatment, index per Table 40
[6] = 100 g/10 a active ingredient, examined at 21st day

SMILES	Herbicidal effect to Eo [1]	Herbicidal effect to Ec [2, 5]	Herbicidal effect to Ec [3]	Herbicidal effect to Se [4, 5]	Herbicidal effect to Ec [2, 6]	Herbicidal effect to Se [4, 6]
Cc1ccccc1CS(=O)(=O)C1=NOC(C)(C)C1 [Compound 1-5]	5 (A herbicidal effect or phytotoxicity of 90% or more)	5 (A herbicidal effect or phytotoxicity of 90% or more)	5 (A herbicidal effect or phytotoxicity of 90% or more)	5 (A herbicidal effect or phytotoxicity of 90% or more)	–	–
CCC1(C)CC(S(=O)(=O)Cc2ccccc2F)=NO1 (centres unmarked) [Compound 1-189]	5 (A herbicidal effect or phytotoxicity of 90% or more)	5 (A herbicidal effect or phytotoxicity of 90% or more)	–	5 (A herbicidal effect or phytotoxicity of 90% or more)	–	–
CCC1(C)CC(S(=O)(=O)Cc2ccc(F)cc2)=NO1 (centres unmarked) [Compound 1-191]	5 (A herbicidal effect or phytotoxicity of 90% or more)	5 (A herbicidal effect or phytotoxicity of 90% or more)	–	5 (A herbicidal effect or phytotoxicity of 90% or more)	–	–
CC(c1ccccc1C(F)(F)F)S(=O)(=O)C1=NOC(C)(C)C1 (centres unmarked) [Compound 1-575]	5 (A herbicidal effect or phytotoxicity of 90% or more)	–	–	–	–	–
CC(C)OC(=O)c1cccc(Cl)c1CS(=O)(=O)C1=NOC(C)(C)C1 [Compound 1-621]	5 (A herbicidal effect or phytotoxicity of 90% or more)	–	–	–	5 (A herbicidal effect or phytotoxicity of 90% or more)	4 (A herbicidal effect or phytotoxicity of 70% to less than 90%)
CCC1(C)CC(S(=O)(=O)Cc2ccc(C#N)cc2)=NO1 (centres unmarked) [Compound 1-329]	5 (A herbicidal effect or phytotoxicity of 90% or more)	5 (A herbicidal effect or phytotoxicity of 90% or more)	–	5 (A herbicidal effect or phytotoxicity of 90% or more)	–	–
CCC1(C)CC(S(=O)(=O)Cc2ccccc2Br)=NO1 (centres unmarked) [Compound 1-195]	5 (A herbicidal effect or phytotoxicity of 90% or more)	5 (A herbicidal effect or phytotoxicity of 90% or more)	–	5 (A herbicidal effect or phytotoxicity of 90% or more)	–	–
O=S(=O)(Cc1c(F)cccc1F)C1=NOCC1 [Compound 1-533]	5 (A herbicidal effect or phytotoxicity of 90% or more)	–	–	–	–	–
COc1ccc(CS(=O)(=O)C2=NOC(C)(C)C2)cc1 [Compound 1-42]	5 (A herbicidal effect or phytotoxicity of 90% or more)	5 (A herbicidal effect or phytotoxicity of 90% or more)	–	4 (A herbicidal effect or phytotoxicity of 70% to less than 90%)	–	–
CC12CCCCC1C(S(=O)(=O)Cc1c(F)cccc1F)=NO2 (centres unmarked) [Compound 1-493]	5 (A herbicidal effect or phytotoxicity of 90% or more)	5 (A herbicidal effect or phytotoxicity of 90% or more)	–	4 (A herbicidal effect or phytotoxicity of 70% to less than 90%)	–	–
CCCCOc1cccc(F)c1CS(=O)(=O)C1=NOC(C)(C)C1 [Compound 1-571]	5 (A herbicidal effect or phytotoxicity of 90% or more)	–	5 (A herbicidal effect or phytotoxicity of 90% or more)	–	5 (A herbicidal effect or phytotoxicity of 90% or more)	–
CC1(C)CC(S(=O)(=O)Cc2ccc(F)cc2)=NO1 [Compound 1-34]	5 (A herbicidal effect or phytotoxicity of 90% or more)	5 (A herbicidal effect or phytotoxicity of 90% or more)	–	5 (A herbicidal effect or phytotoxicity of 90% or more)	–	–
CCC1(C)CC(S(=O)(=O)Cc2ccc(Cl)cc2)=NO1 (centres unmarked) [Compound 1-194]	5 (A herbicidal effect or phytotoxicity of 90% or more)	5 (A herbicidal effect or phytotoxicity of 90% or more)	–	5 (A herbicidal effect or phytotoxicity of 90% or more)	–	–
CS(=O)(=O)C1=NOC2(CC2)C1 [Compound 2-28]	5 (A herbicidal effect or phytotoxicity of 90% or more)	–	–	–	–	–
C#CCOC(=O)c1ccccc1CS(=O)(=O)C1=NOC(C)(C)C1 [Compound 1-600]	5 (A herbicidal effect or phytotoxicity of 90% or more)	–	–	–	5 (A herbicidal effect or phytotoxicity of 90% or more)	–
Fc1cccc(F)c1CSC1=NOC2(CCC2)C1 [Compound 1-381]	5 (A herbicidal effect or phytotoxicity of 90% or more)	4 (A herbicidal effect or phytotoxicity of 70% to less than 90%)	–	4 (A herbicidal effect or phytotoxicity of 70% to less than 90%)	–	–
COC(=O)c1cccc(Cl)c1CS(=O)(=O)C1=NOC(C)(C)C1 [Compound 1-618]	5 (A herbicidal effect or phytotoxicity of 90% or more)	–	–	–	5 (A herbicidal effect or phytotoxicity of 90% or more)	5 (A herbicidal effect or phytotoxicity of 90% or more)
CCOC(=O)c1cccc(Cl)c1CS(=O)(=O)C1=NOC(C)(C)C1 [Compound 1-619]	5 (A herbicidal effect or phytotoxicity of 90% or more)	–	–	–	5 (A herbicidal effect or phytotoxicity of 90% or more)	4 (A herbicidal effect or phytotoxicity of 70% to less than 90%)
COCC1(C)CC(S(=O)(=O)Cc2c(F)cccc2F)=NO1 (centres unmarked) [Compound 1-397]	5 (A herbicidal effect or phytotoxicity of 90% or more)	–	4 (A herbicidal effect or phytotoxicity of 70% to less than 90%)	–	–	–
CC1(C)CC(S(=O)(=O)Cc2cccc(F)c2)=NO1 [Compound 1-33]	5 (A herbicidal effect or phytotoxicity of 90% or more)	5 (A herbicidal effect or phytotoxicity of 90% or more)	–	5 (A herbicidal effect or phytotoxicity of 90% or more)	–	–
O=S(=O)(Cc1c(F)cccc1F)C1=NOC2CCCCC12 (centres unmarked) [Compound 1-387]	5 (A herbicidal effect or phytotoxicity of 90% or more)	5 (A herbicidal effect or phytotoxicity of 90% or more)	–	4 (A herbicidal effect or phytotoxicity of 70% to less than 90%)	–	–
COc1cccc(CS(=O)(=O)C2=NOC(C)(C)C2)c1 [Compound 1-41]	5 (A herbicidal effect or phytotoxicity of 90% or more)	5 (A herbicidal effect or phytotoxicity of 90% or more)	–	5 (A herbicidal effect or phytotoxicity of 90% or more)	–	–
Cc1ccc(C)c(CS(=O)(=O)C2=NOC(C)(C)C2)c1C [Compound 1-616]	5 (A herbicidal effect or phytotoxicity of 90% or more)	–	5 (A herbicidal effect or phytotoxicity of 90% or more)	–	5 (A herbicidal effect or phytotoxicity of 90% or more)	–
COCC1(C)CC([S+]([O-])Cc2c(F)cccc2F)=NO1 (centres unmarked) [Compound 1-396]	5 (A herbicidal effect or phytotoxicity of 90% or more)	4 (A herbicidal effect or phytotoxicity of 70% to less than 90%)	–	5 (A herbicidal effect or phytotoxicity of 90% or more)	–	–
CC1(C)CC(S(=O)(=O)Cc2ccc(F)cc2C(F)(F)F)=NO1 [Compound 1-551]	5 (A herbicidal effect or phytotoxicity of 90% or more)	–	–	–	5 (A herbicidal effect or phytotoxicity of 90% or more)	5 (A herbicidal effect or phytotoxicity of 90% or more)
CC1(C)CC(S(=O)(=O)Cc2cc([N+](=O)[O-])cc([N+](=O)[O-])c2)=NO1 [Compound 1-546]	5 (A herbicidal effect or phytotoxicity of 90% or more)	–	–	–	5 (A herbicidal effect or phytotoxicity of 90% or more)	4 (A herbicidal effect or phytotoxicity of 70% to less than 90%)
CCC1(C)CC(S(=O)(=O)Cc2c(C)ccc(C)c2C)=NO1 (centres unmarked) [Compound 1-617]	5 (A herbicidal effect or phytotoxicity of 90% or more)	–	–	–	5 (A herbicidal effect or phytotoxicity of 90% or more)	5 (A herbicidal effect or phytotoxicity of 90% or more)
O=S(=O)(Cc1c(F)cccc1F)C1=NOC2CCCCCC12 (centres unmarked) [Compound 1-388]	5 (A herbicidal effect or phytotoxicity of 90% or more)	5 (A herbicidal effect or phytotoxicity of 90% or more)	–	5 (A herbicidal effect or phytotoxicity of 90% or more)	–	–
